Assay results reported in patent US7462635B2, “Thiazole and oxazole VDAC regulator” (Takeda Pharmaceutical Company Limited, priority 2002, dated 2008).

Assays:
VDAC-3 = target: T1, VDAC-3 (Homo sapiens, UniProt Q9Y277); assay: Identification of Compound (5)-binding protein: elution from Compound A-immobilized latex particles, SDS-PAGE, TOF-MS; conditions: SK-N-SH nuclear fraction protein; elution with 300 μM Compound (5), 4° C., 1.5 hours; silver staining
T1 construct: protein was extracted from the nuclear fraction of human neuroblastoma SK-N-SH (ATCC); endogenous in cells; host or cells: SK-N-SH human neuroblastoma cells (ATCC)
T1 sequence (Q9Y277 1-283): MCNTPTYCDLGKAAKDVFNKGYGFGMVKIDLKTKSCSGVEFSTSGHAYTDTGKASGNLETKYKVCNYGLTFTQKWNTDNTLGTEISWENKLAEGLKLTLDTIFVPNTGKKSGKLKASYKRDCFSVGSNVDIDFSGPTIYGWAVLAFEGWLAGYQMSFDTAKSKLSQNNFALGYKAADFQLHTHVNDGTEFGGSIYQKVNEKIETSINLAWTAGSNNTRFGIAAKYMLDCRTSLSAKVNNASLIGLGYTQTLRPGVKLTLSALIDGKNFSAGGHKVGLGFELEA
Protocol: (§1) After 5 mg of carboxyl group-type latex particles obtained in Reference Example 1 was dispersed in dioxane, 23 mg of N-hydroxysuccinimide and 38 mg of water-soluble carbodiimide were added, and they were reacted at room temperature (about 20 to 25° C., the same applies below) for 2 hours. After the obtained succinimide-immobilized particles were washed with methanol, they were reacted with 4 mM Compound A (amino derivative of Compound (5)) in 0.5 mL of 0.2M sodium acetate buffer solution (pH 5.3) at room temperature for 1 hour to thereby immobilize Compound A onto the particles. To the obtained particles, 1M aqueous solution of ethanolamine-hydrochloric acid (pH 8.5) was added, and they were reacted at room temperature or 2 hours to thereby block unreacted groups in the succinimide-immobilized particles, after which the particles were washed with 50% methanol and water to give Compound A-immobilized particles. The Compound A-immobilized particles were dispersed in water to obtain a concentration of 10 mg/mL and stored under refrigeration. […]
(§2) Subsequently, centrifugation (15, 000×g, 5 minutes) was carried out, the supernatant was removed, and the obtained particles were washed with 0.05TGEMN buffer. […] After centrifugation (15, 000×g, 5 minutes), the protein-containing supernatant was analyzed by SDS-PAGE. […]

[1] = target: T2, voltage-dependent anion channel (VDAC)-1 (Homo sapiens, UniProt P21796); assay: Identification of Compound (5)-binding protein: elution from Compound A-immobilized latex particles, SDS-PAGE, TOF-MS, immunoblotting; conditions: SK-N-SH nuclear fraction protein; elution with 300 μM Compound (5), 4° C., 1.5 hours; silver staining
T2 construct: protein was extracted from the nuclear fraction of human neuroblastoma SK-N-SH (ATCC); endogenous in cells; host or cells: SK-N-SH human neuroblastoma cells (ATCC)
Protocol: as §1, §2

PC12 cells [2] = assay: Mitochondria respiration activity-increasing action using Alamar Blue; assay type: cell-based; conditions: FCS-free DMEM, 3 μmol/L, 3 hours, B-27 addition group = 100%, non-addition group 73.2%±1.9%, mean±standard deviation, n=7
Protocol: The mitochondria respiration activity-increasing action of Compound (5) was evaluated using Alamar Blue.
(§3) After PC12 cells, pre-cultured in a DMEM containing 10% fetal calf serum (FCS), were suspended in the same medium to obtain a concentration of 2×10^5 cells/mL, the obtained suspension was sown to a 96-well culture plate to obtain a concentration of 0.1 mL/well and cultured for 24 hours. After said culture plate was washed with DMEM, a solution obtained by diluting Compound (5) in FCS-free DMEM to obtain a concentration of 3 μmol/L was added, and cultivation was carried out for 3 hours [Compound (5) addition group]. […]
(§4) Subsequently, to each well of the culture plate, 10 μL of Alamar Blue solution (Alamar Biosciences), which is a mitochondria respiration activity indicator, was added; fluorescence just after the addition and after the plate was allowed to stand in a 5% CO2 incubator at 37° C. for 10 minutes was determined using a Fluoroscan (Flow Laboratories) [excitation wavelength (Ex.): 538 nm, emission wavelength (Em.): 590 nm], and its variation was obtained.
Furthermore, taking the fluorescence variation in the B-27 addition group as 100%, relative values of fluorescence variation in the Compound (5) addition group and the Compound (5) non-addition group were calculated.

PC12 cells [3] = assay: Apoptosis-suppressing action: nucleosome content (Cell Death Detection ELISA), low serum-induced apoptosis; assay type: cell-based; conditions: DMEM with 0.5% FCS, 0.3 μmol/L Compound (5), 24 hours, 10% FCS group = 100%, 0.5% FCS group 422
Protocol: The apoptosis-suppressing action of Compound (5) was evaluated by determining the nucleosome content in PC12 cells.
PC12 cells, pre-cultured in a DMEM containing 10% FCS, were sown to a 24-well culture plate to obtain a concentration of 6×10^4 cells/well, and cultured for 24 hours. After the culture plate was washed with DMEM, a DMEM containing 0.5% FCS (0.5% FCS group) or a DMEM containing 0.5% FCS and 0.3 μmol/L Compound (5) (0.5% FCS+Compound (5) group) was added, and the cells were further cultured for 24 hours. Also, as a control group, the same procedures were carried out using a DMEM containing 10% FCS (10% FCS group). The cells suspended in the culture broth and the cells adhering to the culture plate, detached by trypsin-EDTA treatment, were recovered. According to the protocol of an apoptosis assay kit with nucleosome detection as an index (Cell Death Detection ELISA, Roche), the recovered cells were suspended in 500 μL of the cytolytic solution attached to said assay kit. After the suspension was ice-cooled for 30 minutes, it was centrifuged at 15, 000 rpm for 10 minutes and 400 μL of the supernatant was recovered. Said supernatant was diluted 2 fold and subjected to ELISA to determine its nucleosome content. Subsequently, taking the nucleosome content in the 10% FCS group as 100%, percentage in each group was calculated. The results are shown in [Table 2].

PC12 cells [4] = assay: Cytochrome c leakage suppressing action (cytochrome c ELISA of cytoplasmic protein); assay type: cell-based; conditions: DMEM with 0.5% FCS, 0.3 μmol/L Compound (5), 16 hours, 0.5% FCS group without compound 19.4
Protocol: The effect of Compound (5) on VDAC function was evaluated by determining the amount of cytochrome c leakage in the cytoplasm of PC12 cells.
PC12 cells, pre-cultured in a DMEM (Dulbecco's Modified Eagle's Medium) containing 10% FCS (Fetal Calf Serum), were sown to a culture dish of 10 cm diameter (Falcon) and cultured until they became nearly confluent. After the culture dish was washed with DMEM, a DMEM containing 0.5% FCS (0.5% FCS group) or a DMEM containing 0.5% FCS and 0.3 μmol/L Compound (5) (0.5% FCS+Compound (5) group) was added, and the cells were further cultured for 16 hours. The cells suspended in the culture broth and the cells adhering to the culture dish, detached by trypsin-EDTA treatment, were recovered. The recovered cells, after being washed with PBS, were ice-cooled in a digitonin solution [10 mmol/L HEPES, 0.3 mol/L mannitol, 0.1% (w/v) BSA, 100 μmol/L digitonin] (100 μL) for 5 minutes to extract cytoplasmic protein. After the obtained cytoplasmic protein was centrifuged at 8500×g for 5 minutes, 12 μL of the supernatant was analyzed using an assay kit [cytochrome c ELISA kit (MBL) and […] (Pierce), respectively] to determine its cytochrome c content and protein content. Subsequently, the cytochrome c content per unit amount of total protein was calculated, and this was taken as the amount of cytochrome c leakage (ng/mg). The results are shown in [Table 1].

PC12 cells [5] = assay: Mitochondria membrane potential-stabilizing action using Rodamin 123; assay type: cell-based; conditions: FCS-free DMEM, 3 μmol/L, 4 hours, FCS addition group = 100%, non-addition group 131.2±12.9%, mean±standard deviation, n=8
Protocol: The mitochondria membrane potential-stabilizing action of Compound (5) was evaluated using Rodamin 123 (trade name, Molecular Probe).
as §3, with “said culture-plate” for “said culture plate”, “for 4” for “for 3”
as §4, with “Rodamin 123 (trade name, Molecular Probe),” for “10 μL of Alamar Blue solution (Alamar Biosciences),”, “membrane potential” for “respiration activity”, “added to obtain a concentration of 1 μmol/L;” for “added;”, “485” for “538”, “538” for “590”
Furthermore, taking the fluorescence variation in the FCS addition group as 100%, relative values of fluorescence variation in the Compound (5) addition group and the Compound (5) non-addition group were calculated.

T2 sequence (P21796 whole entry): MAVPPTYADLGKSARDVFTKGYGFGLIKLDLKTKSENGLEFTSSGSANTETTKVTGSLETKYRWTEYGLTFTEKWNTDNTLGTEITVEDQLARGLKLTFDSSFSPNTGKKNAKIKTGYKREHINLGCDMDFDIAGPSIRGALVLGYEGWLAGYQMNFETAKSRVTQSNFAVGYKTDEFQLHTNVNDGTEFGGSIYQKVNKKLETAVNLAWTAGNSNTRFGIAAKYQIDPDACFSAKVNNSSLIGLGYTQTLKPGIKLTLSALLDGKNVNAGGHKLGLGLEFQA

about 30 kDa protein band (VDAC-3) eluted from Compound A-immobilized particles (VDAC-3): eluted selectively
about 32 kDa protein band (VDAC-1) eluted from Compound A-immobilized particles [1]: eluted selectively
Compound: Cc1ccccc1OCCCc1oc(-n2ccnc2C)nc1-c1ccc(Cl)cc1 [Compound (5), 4-(4-chlorophenyl)-2-(2-methyl-1-imidazolyl)-5-[3-(2-methylphenoxy)propyl]oxazole]
fluorescence variation (Alamar Blue), relative value (PC12 cells [2]): 126.7%±15.7%
Nucleosome content (PC12 cells [3]): 176%
Amount of cytochrome c leakage (PC12 cells [4]): 7.0 ng/mg
fluorescence variation (Rodamin 123), relative value (PC12 cells [5]): 110.0%±8.0%
